From PubChem BioAssay (NCI)
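Five compound concentrations were applied to cells in 96-well plates for 48 hours; endpoints were derived by simple linear interpolation of the resulting dose-response curve. GI50: concentration for 50% inhibition of growth. The concentration for full growth arrest is given as TGI.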

Assays:
Assay in all cases: NCI tumour cell line growth inhibition, 48 h
786-0 renal = tested on: 786-0 renal
A498 renal = tested on: A498 renal
A549 NSCLC = tested on: A549 NSCLC
ACHN renal = tested on: ACHN renal
BT-549 breast = tested on: BT-549 breast
CAKI-1 renal = tested on: CAKI-1 renal
CCRF-CEM leukemia = tested on: CCRF-CEM leukemia
COLO 205 colon = tested on: COLO 205 colon
DU-145 prostate = tested on: DU-145 prostate
EKVX NSCLC = tested on: EKVX NSCLC
HCC-2998 colon = tested on: HCC-2998 colon
HCT-116 colon = tested on: HCT-116 colon
HCT-15 colon = tested on: HCT-15 colon
HL-60(TB) leukemia = tested on: HL-60(TB) leukemia
HOP-62 NSCLC = tested on: HOP-62 NSCLC
HOP-92 NSCLC = tested on: HOP-92 NSCLC
HS 578T breast = tested on: HS 578T breast
HT29 colon = tested on: HT29 colon
IGROV1 ovarian = tested on: IGROV1 ovarian
K-562 leukemia = tested on: K-562 leukemia
KM12 colon = tested on: KM12 colon
LOX IMVI melanoma = tested on: LOX IMVI melanoma
M14 melanoma = tested on: M14 melanoma
MALME-3M melanoma = tested on: MALME-3M melanoma
MCF7 breast = tested on: MCF7 breast
MDA-MB-435 = tested on: MDA-MB-435
MDA-MB-468 breast = tested on: MDA-MB-468 breast
NCI-H226 lung = tested on: NCI-H226 lung
NCI-H23 lung = tested on: NCI-H23 lung
NCI-H460 lung = tested on: NCI-H460 lung
NCI-H522 lung = tested on: NCI-H522 lung
NCI/ADR-RES ovarian = tested on: NCI/ADR-RES ovarian
OVCAR-3 ovarian = tested on: OVCAR-3 ovarian
OVCAR-5 ovarian = tested on: OVCAR-5 ovarian
OVCAR-8 ovarian = tested on: OVCAR-8 ovarian
PC-3 prostate = tested on: PC-3 prostate
RPMI-8226 leukemia = tested on: RPMI-8226 leukemia
SF-268 CNS = tested on: SF-268 CNS
SF-295 CNS = tested on: SF-295 CNS
SF-539 CNS = tested on: SF-539 CNS
SK-MEL-2 melanoma = tested on: SK-MEL-2 melanoma
SK-MEL-28 melanoma = tested on: SK-MEL-28 melanoma
SK-MEL-5 melanoma = tested on: SK-MEL-5 melanoma
SK-OV-3 ovarian = tested on: SK-OV-3 ovarian
SNB-75 CNS = tested on: SNB-75 CNS
SW-620 colon = tested on: SW-620 colon
T-47D breast = tested on: T-47D breast
TK-10 renal = tested on: TK-10 renal
U251 CNS = tested on: U251 CNS
UACC-257 melanoma = tested on: UACC-257 melanoma
UO-31 renal = tested on: UO-31 renal

For CN(C)c1nc(NCCNS(=O)(=O)c2ccc(C3=Nc4c(N)nc(N)nc4NC(c4ccc(F)cc4)C3)cc2)nc(Nc2ccc(F)cc2)n1 (configuration not stated), the GI50 (786-0 renal) was 4.77 µM, the TGI (786-0 renal) was > 100 µM and the GI50 (A498 renal) was 22.1 µM. For the same molecule, the TGI (A498 renal) was > 100 µM, the GI50 (A549 NSCLC) was > 100 µM and the TGI (A549 NSCLC) was > 100 µM. For the same molecule, the GI50 (ACHN renal) was > 100 µM, the TGI (ACHN renal) was > 100 µM and the GI50 (BT-549 breast) was 3.26 µM. For the same molecule, the TGI (BT-549 breast) was 18.2 µM, the GI50 (CAKI-1 renal) was 6.5 µM and the TGI (CAKI-1 renal) was > 100 µM. For the same molecule, the GI50 (CCRF-CEM leukemia) was 3.99 µM, the TGI (CCRF-CEM leukemia) was > 100 µM and the GI50 (COLO 205 colon) was 11.8 µM. For the same molecule, the TGI (COLO 205 colon) was > 100 µM, the GI50 (DU-145 prostate) was 52 µM and the TGI (DU-145 prostate) was > 100 µM. For the same molecule, the GI50 (EKVX NSCLC) was 5.17 µM, the TGI (EKVX NSCLC) was > 100 µM and the GI50 (HCC-2998 colon) was 4.22 µM. The TGI (HCC-2998 colon) was > 100 µM, the GI50 (HCT-116 colon) was 4.54 µM and the TGI (HCT-116 colon) was > 100 µM. The GI50 (HCT-15 colon) was > 100 µM, the TGI (HCT-15 colon) was > 100 µM and the GI50 (HL-60(TB) leukemia) was 3.12 µM. The TGI (HL-60(TB) leukemia) was > 100 µM, the GI50 (HOP-62 NSCLC) was 96 µM and the TGI (HOP-62 NSCLC) was > 100 µM. The GI50 (HOP-92 NSCLC) was 3.09 µM, the TGI (HOP-92 NSCLC) was 23.3 µM and the GI50 (HS 578T breast) was 5.7 µM. For the same molecule, the TGI (HS 578T breast) was > 100 µM, the GI50 (HT29 colon) was 3.88 µM and the TGI (HT29 colon) was > 100 µM. The GI50 (IGROV1 ovarian) was 5.01 µM, the TGI (IGROV1 ovarian) was > 100 µM and the GI50 (K-562 leukemia) was 2.8 µM. For the same molecule, the TGI (K-562 leukemia) was > 100 µM, the GI50 (KM12 colon) was 4.69 µM and the TGI (KM12 colon) was > 100 µM. The GI50 (LOX IMVI melanoma) was 2.62 µM, the TGI (LOX IMVI melanoma) was 9.13 µM and the GI50 (M14 melanoma) was 3.84 µM. The TGI (M14 melanoma) was 25.3 µM, the GI50 (MALME-3M melanoma) was 6.28 µM and the TGI (MALME-3M melanoma) was > 100 µM. The GI50 (MCF7 breast) was 3.16 µM, the TGI (MCF7 breast) was 43.7 µM and the GI50 (MDA-MB-435) was 5.93 µM. The TGI (MDA-MB-435) was > 100 µM, the GI50 (MDA-MB-468 breast) was 2.15 µM and the TGI (MDA-MB-468 breast) was 6.24 µM. For the same molecule, the GI50 (NCI-H226 lung) was > 100 µM, the TGI (NCI-H226 lung) was > 100 µM and the GI50 (NCI-H23 lung) was 54.1 µM. For the same molecule, the TGI (NCI-H23 lung) was > 100 µM, the GI50 (NCI-H460 lung) was 4.74 µM and the TGI (NCI-H460 lung) was > 100 µM. The GI50 (NCI-H522 lung) was 34.8 µM, the TGI (NCI-H522 lung) was > 100 µM and the GI50 (NCI/ADR-RES ovarian) was > 100 µM. The TGI (NCI/ADR-RES ovarian) was > 100 µM, the GI50 (OVCAR-3 ovarian) was 8.09 µM and the TGI (OVCAR-3 ovarian) was > 100 µM. For the same molecule, the GI50 (OVCAR-5 ovarian) was > 100 µM, the TGI (OVCAR-5 ovarian) was > 100 µM and the GI50 (OVCAR-8 ovarian) was 12 µM. The TGI (OVCAR-8 ovarian) was > 100 µM, the GI50 (PC-3 prostate) was 5.04 µM and the TGI (PC-3 prostate) was > 100 µM. The GI50 (RPMI-8226 leukemia) was 5.25 µM, the TGI (RPMI-8226 leukemia) was > 100 µM and the GI50 (SF-268 CNS) was 4.83 µM. The TGI (SF-268 CNS) was > 100 µM, the GI50 (SF-295 CNS) was 6.71 µM and the TGI (SF-295 CNS) was > 100 µM. The GI50 (SF-539 CNS) was 3.89 µM, the TGI (SF-539 CNS) was > 100 µM and the GI50 (SK-MEL-2 melanoma) was 8.17 µM. For the same molecule, the TGI (SK-MEL-2 melanoma) was 29 µM, the GI50 (SK-MEL-28 melanoma) was 15.7 µM and the TGI (SK-MEL-28 melanoma) was > 100 µM. For the same molecule, the GI50 (SK-MEL-5 melanoma) was 3.36 µM, the TGI (SK-MEL-5 melanoma) was 14.9 µM and the GI50 (SK-OV-3 ovarian) was > 100 µM. For the same molecule, the TGI (SK-OV-3 ovarian) was > 100 µM, the GI50 (SNB-75 CNS) was 2.53 µM and the TGI (SNB-75 CNS) was 74 µM. The GI50 (SW-620 colon) was 8.27 µM, the TGI (SW-620 colon) was > 100 µM and the GI50 (T-47D breast) was 4.86 µM. The TGI (T-47D breast) was > 100 µM, the GI50 (TK-10 renal) was > 100 µM and the TGI (TK-10 renal) was > 100 µM. The GI50 (U251 CNS) was 6.35 µM, the TGI (U251 CNS) was > 100 µM and the GI50 (UACC-257 melanoma) was 11.4 µM. The TGI (UACC-257 melanoma) was > 100 µM, the GI50 (UO-31 renal) was > 100 µM and the TGI (UO-31 renal) was > 100 µM.
